The source of these data is a melting point compilation (Tetko et al.; mined from patent text by program, amines drawn as free bases though some values may be those of a salt).

`CS(=O)(=O)NCCCCn1c(CCCOc2ccccc2)nc2c(N)nc3ccccc3c21`: the melting point lay within 156 to 157 °C.

As for `CCNC(=N)NC(=O)Cc1cccc(OC)c1`, the melting point was in the range of 108 to 110 °C.

In turn, `CCCC(O)c1cc(C#N)ccc1OCc1ccc(Cl)cc1Cl` (stereo unspecified) showed a melting point of 120 to 121 °C.

As for `CCOc1ccc(C(=O)Nc2ccccc2)cc1N`, the melting point is 189 to 190 °C.

The molecule `CC(Oc1ccc(Oc2cnc3ccccc3n2)cc1)C(=O)O` (stereo unspecified) showed a melting point of 137 to 141 °C.

Molecule `CNC(=S)C1(c2cccnc2)CCCCS1=O` (stereo unspecified) registered a melting point of 228 °C.

`Clc1nc(OC(Cl)(Cl)Cl)cc(C(Cl)(Cl)Cl)n1` had a melting point of 67 to 69 °C.

`CN1CC[C@@H](c2c(O)cc(O)c3c(=O)cc(-c4ccc([N+](=O)[O-])cc4)oc23)[C@@H]1CO` registered a melting point of 275 to 277 °C.

With `CC(=Cc1ccc(-c2ccc(Cl)cc2)cc1)[N+](=O)[O-]`, the melting point is 114 °C.

On to `CC(=O)c1ccc(N2CCN(C(=O)c3c(Cl)ccc([N+](=O)[O-])c3Cl)CC2)c(F)c1`, for which the melting point lay within 209 to 211 °C.

`CSc1cc(CO)cc(S(N)(=O)=O)c1Cc1ccccc1` came in with a melting point of 190 to 192 °C.

For the molecule `CCC(=O)NCc1c[nH]c2ccccc12`, the melting point was 91 to 92 °C.

Regarding `COC=C(C(=O)OC)N(C)c1ccnc(-c2ccccc2)n1`, the melting point fell in the range of 152 to 154 °C.

`CC(CSC#N)n1nnc2cc3c(=O)n(C4CC4)nnc3cc2c1=O` (stereo unspecified) returned a melting point of 178 to 180 °C.

Consider `CN1C(=O)[C@H](NC(=O)CCCc2ccccc2)N=C(c2ccccc2)c2ccccc21`, for which the melting point lay within 65 to 74 °C.

`OCCCc1ccc(OCc2coc(/C=C/c3ccccc3)n2)cc1` registered a melting point of 95 to 96 °C.

Take `CC(C)(C)OC(=O)NC(=N)c1ccc(C(=O)O)cc1`: the melting point is greater than 200 °C.

`CCC(=O)C1=C(O)CC(c2cccc(Oc3ccc(S(C)(=O)=O)cc3)c2)CC1=O` (stereo unspecified) had a melting point of 136 to 138 °C.

On to `CSc1nnc(SC)c2cc(-c3ccccc3)ncc12`, for which the melting point amounted to 155 °C.

With `COc1cc2c(cc1OC)C(=CC(N)=O)NCC2`, the melting point lay in the range of 156 to 158 °C.

With `CC(C)(C)OC(=O)NC1C2CN(CC(O)(c3ccccc3)c3ccccc3)CC21` (stereo unspecified), the melting point is 127 to 131 °C.

In turn, `CN(C)c1ncn2c1C[N+]([O-])=C(c1ccccc1F)c1cc(Cl)ccc1-2` displayed a melting point of 203 to 206 °C.

Consider `CN(C)C(=O)c1ccc(C(=O)O)c(S(=O)(=O)NC(C)(C)C)c1`, for which the melting point is greater than 260 °C.

As to `Cc1cc(Cl)c2c(c1)C(=O)N(C(C)(C)C)CC(=O)N2`, the melting point fell in the range of 151 to 152 °C.

In turn, `Oc1ncc(-c2ccc(C(F)(F)F)cc2)cn1` showed a melting point of 271 to 273 °C.

On to `CC(C#CCOc1ccccc1)N(O)C(N)=O` (stereo unspecified), for which the melting point lay within 75 to 77 °C.

`O=Cc1nnc2n1-c1ccc(Cl)cc1C(c1ccccc1)=NC2`: the melting point fell in the range of 133 to 135 °C.

Take `NC(=O)N(O)C1C=C(c2cccc(Oc3ccc(Cl)cc3)c2)CC1` (single isomer, unassigned; (+)): the melting point was in the range of 143 to 144 °C.

`COC(=O)Nc1cc(NC(=O)NSC(=S)N(C)C)ccc1C` gave a melting point of 180 to 185 °C.

The molecule `CCc1nn(CCC(N)=O)c(CC)c1Cc1cc(Cl)cc(Cl)c1` gave a melting point of 140 to 142 °C.

As for `COc1ccc(C2(c3ccc(OC)cc3)CCN(C[C@H]3CN(C)[C@@H]4Cc5c(Br)[nH]c6cccc(c56)[C@@]4(OC)C3)CC2)cc1`, the melting point is 167 to 172 °C.

`CNC(=O)Cc1nn(-c2ccccc2)c(=O)c2c1c1c(Br)cccc1n2C`: the melting point fell in the range of 267 to 268 °C.

As to `COc1ccc2ccc(N3C(=O)c4ccccc4C3OCc3cccnc3)nc2n1` (stereo unspecified), the melting point was 175 °C.

For `CC1(C)C(=O)Nc2ccc(C3(C#N)C=CC=N3)cc21` (stereo unspecified), the melting point fell in the range of 256 to 258 °C.

Molecule `Nc1nc(COc2cccc(Cl)c2Cl)nc2nccnc12` returned a melting point of 216 to 218 °C.

`CC(=O)N(C)C1CCNCC1` registered a melting point of less than 50 °C.

For the molecule `COc1c(CC(=O)O)cccc1Oc1ccccc1Cl`, the melting point lay in the range of 87 to 92 °C.

`CCOC(=O)COc1ccc(-c2nc(-c3ccc(C)cc3)nc(-c3ccc(C)cc3)n2)c(O)c1` registered a melting point of 166 to 167 °C.

Take `OCc1cn(Cc2ccc(OCc3ccccc3)cc2)nc1-c1ccccc1`: the melting point lay within 88 to 89 °C.

As for `COC(=O)Cc1cc(C(=O)c2ccccc2Cl)ccc1O`, the melting point turned out to be 119 °C.

For `CC(C)(C)OC(=O)NC1CCc2ccc(C=O)cc2C1` (stereo unspecified), the melting point was 98 to 101 °C.

Consider `CCOC(=O)C(CC)C(=O)Nc1ccc(Br)cc1C` (stereo unspecified), for which the melting point was 98 to 100 °C.

Molecule `CCCc1c(C(=O)C2CC2)c2ccc(C(N)=O)cc2n1Cc1cc2c(cc1Cl)OCO2` yielded a melting point of 162 to 164 °C.

As to `O=C(O)COCCOCCN1CCC(=C(c2ccccc2)c2ccccc2)CC1`, the melting point lay in the range of 120 to 123 °C.

Consider `CCCc1c(C(=O)C(C)C)c2ccc(C(N)=O)cc2n1Cc1ccccc1NC(=O)NC`, for which the melting point was 222 to 223 °C.

`COC(=O)Nc1nc2ccc(Sc3ccccc3)cn2c1CN1CCOCC1` had a melting point of 158 to 182 °C.

Molecule `O=C(NCc1ccc2c(c1)OCO2)c1ccc2n1Cc1ccccc1N(C(=O)COc1ccc(Cl)cc1)C2` yielded a melting point of 168 to 169 °C.

The molecule `N#CCC(CC#N)c1cccc(Cl)c1Cl` had a melting point of 76 to 78 °C.

In turn, `CCCCCCCCCCCCC/C=C1\C(=O)OCC1(CO)COC(C)=O` (stereo unspecified) gave a melting point of 48 °C.

`COc1cc(C(=O)N2Cc3cccn3Cc3ccccc32)ccc1[N+](=O)[O-]`: the melting point is 191 to 192 °C.

For `CCN1CCCC(c2ccc(OC)c(OC)c2)C1` (stereo unspecified), the melting point was 50 °C.

`CN1CCN(c2cc(Cl)cc3c2c(=O)n(Cc2cccc(N)c2)c(=O)n3Cc2ccccc2)CC1` showed a melting point of 260 to 265 °C.

In turn, `COC(=O)c1cc(N2C(=O)C3=C(CCCC3)C2=O)ccc1Cl` returned a melting point of 113 to 115 °C.

As for `O=C(Nc1ccc(F)cc1)N1CC2C(C1)C2Nc1ncc2cc(-c3ccccc3Cl)c(=O)n(-c3ccc(F)cc3)c2n1` (stereo unspecified), the melting point fell in the range of 300 to 302 °C.

The molecule `Cc1cc(C#N)cc(C)c1Nc1nc(Nc2ccc(C#N)cc2)nc(Cl)c1Br` registered a melting point of 259 to 260 °C.

For the molecule `CC1CC(=O)NN=C1c1ccc(O)cc1` (stereo unspecified), the melting point was 268 to 273 °C.

On to `C[Si](CCSCCNC(=O)n1cc(F)c(=O)[nH]c1=O)(c1ccccc1)c1ccccc1`, for which the melting point is 119 to 120 °C.

As to `C=C1C2CCCCC2CC2C(OC)OCC12` (stereo unspecified), the melting point was 53 to 55 °C.

The molecule `COc1cc2c(cc1OC)C(CBr)OCCC2` (stereo unspecified) yielded a melting point of 44 to 45 °C.

`O=C1NC(c2ccccc2)C(=O)NC1c1ccccc1` (stereo unspecified) yielded a melting point of 282 to 284 °C.

Regarding `CC(C)(CNC(=O)c1ccccc1-c1ccccc1C(=O)O)SN=O`, the melting point fell in the range of 121 to 123 °C.

For `CCn1ncc2c(NCC3CCCCC3)c3cc(Br)ccc3nc21`, the melting point was 158 to 160 °C.

As for `O=c1[nH]nc(Cc2ccc([N+](=O)[O-])cc2)o1`, the melting point fell in the range of 170 to 171 °C.

For `Cn1ccnc1Sc1ccc(Nc2c(C#N)cnc3cc(/C=C/CCN4CCC(N5CCCC5)CC4)sc23)cc1Cl`, the melting point lay in the range of 213 to 216 °C.

For the molecule `COc1ccccc1C1=C(C#N)C(c2ccccc2OC)c2c[nH]nc2N1` (stereo unspecified), the melting point was 220 °C.

For `CC(=O)OC1CSC(Oc2cc(-c3ccc(C#N)cc3)cnc2F)C(OC(C)=O)C1OC(C)=O` (stereo unspecified), the melting point lay within 132 to 133 °C.

`Cc1ccc(C=Cc2csc3ccccc23)s1` had a melting point of 62 to 64 °C.

Take `COc1ccc(C(=O)Nc2cccnc2Cl)c2c1oc1ccccc12`: the melting point is 192 °C.

For `COc1ccc(-c2ccc(-c3ccc(F)cc3)nc2-c2ccc(OCc3ccccc3)cc2)cc1`, the melting point fell in the range of 114 to 115 °C.

As to `N#Cc1ccc(Oc2ccc(C3CCCN4CCS(=O)(=O)N=C34)cc2)cc1Cl` (stereo unspecified), the melting point fell in the range of 219 to 220 °C.

`Nc1ccccc1CC1NCCc2ccccc21` (stereo unspecified) returned a melting point of 69 to 71 °C.

`C=C[C@H]1CC(C(=O)OC)=C[C@@H](OC(C)C)[C@@H]1NC(C)=O` came in with a melting point of 132 to 133 °C.

The molecule `CC(=O)N1CCN(c2cc3c(c(NCc4ccccc4)c2F)c(=O)c(C(=O)O)cn3C2CC2)CC1C` (stereo unspecified) came in with a melting point of 235 to 236 °C.

In turn, `CC[Si](CC)(CC)Oc1cccc2ncc3c(c12)CCCC3` showed a melting point of 110 to 111 °C.

Molecule `Nc1cc(=O)n(CC2CCCCC2)c(=O)n1CC1CCCCC1` registered a melting point of 138 to 141 °C.

Consider `CC(=O)N[C@@H](Cc1ccc(-c2c3ccccc3cc3ccccc23)cc1)C(=O)O`, for which the melting point stood at 76 °C.

In the case of `COc1cc2c(cc1OC)C(C(C#N)SCCOC(C)=O)=NCC2` (stereo unspecified), the melting point turned out to be 157 °C.

With `COc1ccc(OCC(O)CCN2CCN(c3ccccc3)CC2)cc1` (stereo unspecified), the melting point fell in the range of 103 to 105 °C.

The molecule `Cc1cccc2c1S(=O)(=O)NC(C1CCCCC1)N2` (stereo unspecified) gave a melting point of 228 to 230 °C.

On to `CCOc1ccc(-n2c(N)cc(=O)nc2SC)cc1`, for which the melting point was 177 to 181 °C.

In turn, `O=C1NC(NCC2CC2)=N/C1=C\c1c[nH]c2ncc(N3CCOCC3)cc12` had a melting point of 331 °C.

`CC(=O)Nc1ccc2c(c1)C(=O)N(CCO[N+](=O)[O-])CO2` yielded a melting point of 141 to 142 °C.

In turn, `CC1(C)OC(=O)N(Cc2ccccc2[N+](=O)[O-])C1O` (stereo unspecified) displayed a melting point of 119 to 120 °C.

The molecule `Clc1ccc2c(c1)C(c1ccccc1)=NCc1nnc(C(Cl)Cl)n1-2` displayed a melting point of 193 to 196 °C.

As to `Cc1ccc(-c2cc(C(F)(F)F)n3ncc(C#N)c3n2)cc1`, the melting point was determined as 121 °C.

`CN(C)C(=O)C1(c2ccccc2)CCNCC1` showed a melting point of 95 °C.

Molecule `CC(C)N(CCC(C(N)=O)(c1ccc(O)cc1)c1ccccn1)C(C)C` (stereo unspecified) returned a melting point of 148 to 151 °C.

Molecule `COc1ccc(C(CBr)(OC)OC)cc1` yielded a melting point of 52 to 53 °C.

The molecule `O=C(CS(=O)(=O)c1ccccc1)c1ccc(F)nc1` gave a melting point of 127 to 128 °C.

Take `O=C1NC(=O)c2c1c(-c1ccccc1Cl)cc1c2cc(CO)n1CCCBr`: the melting point lay within 218 to 220 °C.

The molecule `CCOC(=O)c1c(Cn2ccnn2)nc2cc(OC)c(OC)cc2c1-c1ccc(OC)c(OC)c1` had a melting point of 195 to 196 °C.
